This is an account of results in publication PMC6968685 (Journal of Enzyme Inhibition and Medicinal Chemistry, 2020).

Data set [1] concerns L. donovani (MHOM/IN/00/DEVI) promastigotes. Description: In vitro antileishmanial activity, MTT assay on promastigotes. Conditions: Leishmania donovani, 72 h incubation, ≥10 = no activity noted at the highest concentration tested. In kind it is cell-based. The essentials:
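Log-phase L. donovani MHOM/IN/00/DEVI promastigotes (10^6/ml, Schneider's + 20% FCS) were exposed to graded compound concentrations (DMSO <0.5% v/v) for 72 h at 27 °C, in duplicate. Growth measured by MTT reduction (4 h, A570 nm); IC50 obtained by regression.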
(Tetrazolium dyes change colour on reduction, which living cells bring about.)

Data set [2] deals with T. brucei brucei AnTat 1.9. As to the kind of experiment: In vitro antitrypanosomal activity, Alamar Blue assay. The conditions noted are these: Trypanosoma brucei; slender bloodstream trypomastigotes, AnTat 1.9 strain; read-out: Trypanosoma brucei brucei IC50 values, Trypanos Antat 1.9. The data set is classed as cell-based. The essentials: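 Bloodstream parasites (2000/well) in supplemented MEM with 20% horse serum exposed to compound in duplicate for 69 h at 37 °C, then Alamar Blue added for 5 h; fluorescence read at ex 530/em 590 nm. IC50 by nonlinear regression, from three independent experiments.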
For orientation: The colour change of resazurin is a common sign of viable cells or microbes.

Another data set has as its system human HepG2 cells. Description: Cytotoxicity evaluation, MTT. Conditions: HepG2 cells; 72 h. In kind it is cell-based. Put shortly:
(§1)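 HepG2 hepatocarcinoma cells exposed to compound in duplicate, then viability measured by MTT reduction (0.5 mg/ml), formazan dissolved in DMSO and read at 570 nm against 630 nm. Viability expressed as percent of untreated cells; CC50 taken from dose-response curve, doxorubicin as positive control.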

Data set [3] has as its system Plasmodium telomeric sequence FPf1T G-quadruplex. As to the kind of experiment: FRET melting experiments, FPf1T. In kind it is binding, P. falciparum. Conditions: 2 μM compound, 0.2 μM oligonucleotide, K+ conditions. As to the method: (§2) These were performed with dual-labelled oligonucleotides mimicking the Plasmodium telomeric sequences FPf1T [FAM-5′(GGGTTTA)3-GGG3′-TAMRA] and FPf8T [FAM-5′ (GGGTTCA)3GGG3′-TAMRA], the Trypanosoma 9 and 11 chromosomic sequence FTrypBT (also named FEBR1T) [FAM-5′[…]3′-TAMRA], the human telomeric sequence F21T [FAM-(GGGTTA)3-GGG3′-TAMRA], and the human duplex sequence FdxT [FAM5′-[…]-hexaethyleneglycol-[…]3′-TAMRA][51]^,[52]. The oligonucleotides were pre-folded in 10 mM lithium cacodylate buffer (pH 7.2), with 10 mM KCl and 90 mM LiCl (K^+condition). The FAM emissions were recorded at 516 nm using a 492-nm excitation wavelength in the absence and presence of a single compound as a function of temperature (25–95 °C) in 96-well microplates by using a Stratagene MX3000P real-time PCR device at a rate of 1 °C·min^−1. Data were normalised between 0 and 1, and the required temperature for half-denaturation of oligonucleotides corresponding to the emission value of 0.5 was taken as the Tm. […] For each compound, three independent experiments were carried out.

The subject of data set [4] is Plasmodium telomeric sequence FPf8T G-quadruplex. Description: FRET melting experiments, FPf8T. The data set is classed as binding, P. falciparum. Conditions: 2 μM compound, 0.2 μM oligonucleotide, K+ conditions. On the procedure:
as §2

For data set [5], the system named is Trypanosoma 9 and 11 chromosomic sequence FTrypBT (FEBR1T) G-quadruplex. As to the kind of experiment: FRET melting experiments, FtrypBT. In kind it is binding, T. brucei brucei. The conditions noted are these: 2 μM compound, 0.2 μM oligonucleotide, K+ conditions. On the procedure:
as §2

The subject of data set [6] is human duplex sequence FdxT. Description: FRET melting experiments, FdxT duplex control. The data set is classed as binding. The conditions noted are these: 2 μM compound, 0.2 μM oligonucleotide, K+ conditions. On the procedure: as §2
The test system of data set [7] is human telomeric sequence F21T G-quadruplex. Description: FRET melting experiments, F21T. In kind it is binding. The conditions noted are these: 2 μM compound, 0.2 μM oligonucleotide, K+ conditions. On the procedure: as §2
In data set [8] the test system is P. falciparum CQ-resistant strain W2. As to the kind of experiment: In vitro antiplasmodial activity, SYBR Green I fluorescence-based method, strain W2. In kind it is cell-based. Conditions: Plasmodium falciparum; chloroquine-resistant strain W2; 48 h incubation; read-out: P. falciparum strains IC50 values, W2. The essentials: (§3)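 P. falciparum 3D7 and W2 cultured in human erythrocytes in RPMI with 0.5% Albumax I at 37 °C, exposed 48 h to compounds tested […]. Parasite DNA read by SYBR Green I fluorescence (ex 485/em 535 nm); IC50 by non-linear regression, mean of three independent experiments.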

The subject of data set [9] is P. falciparum CQ-sensitive strain 3D7. Description: In vitro antiplasmodial activity, SYBR Green I fluorescence-based method, strain 3D7. The conditions noted are these: Plasmodium falciparum; chloroquine-sensitive strain 3D7; 48 h incubation; read-out: P. falciparum strains IC50 values, 3D7. The data set is classed as cell-based. Put shortly:
as §3

A short description of data set [10]: Cytotoxicity evaluation, MTT. The data set is classed as cell-based, human. The conditions noted are these: human. Put shortly:
as §1

Data set [11] has as its system F21T (DNA, G4) GGGTTAGGGTTAGGGTTAGGG
Description: FRET melting. The conditions noted are these: 10 mM K+, 90 mM Li+; 10 mM lithium cacodylate pH 7.2; 2 µM compound, 0.2 µM oligonucleotide.

Data set [12] has as its system FPf1T (DNA, G4) GGGTTTAGGGTTTAGGGTTTAGGG
Description: FRET melting. Conditions: 10 mM K+, 90 mM Li+; 10 mM lithium cacodylate pH 7.2; 2 µM compound, 0.2 µM oligonucleotide.

Data set [13] deals with FPf8T (DNA, G4) GGGTTCAGGGTTCAGGGTTCAGGG
As to the kind of experiment: FRET melting. Conditions: 10 mM K+, 90 mM Li+; 10 mM lithium cacodylate pH 7.2; 2 µM compound, 0.2 µM oligonucleotide.

Data set [14] relates to FtrypBT (FEBR1T; FtryBT) (DNA, G4) GGGCAGGGGGTGATGGGGAGGAGCCAGGG
As to the kind of experiment: FRET melting. The conditions noted are these: 10 mM K+, 90 mM Li+; 10 mM lithium cacodylate pH 7.2; 2 µM compound, 0.2 µM oligonucleotide.

For data set [15], the system named is FdxT (DNA, duplex, hexaethylene glycol linker between nucleotides 10 and 11) TATAGCTATATATAGCTATA
As to the kind of experiment: FRET melting. The conditions noted are these: 10 mM K+, 90 mM Li+; 10 mM lithium cacodylate pH 7.2; 2 µM compound, 0.2 µM oligonucleotide.

Consider `N=C(N)c1ccc(OCCCCCOc2ccc(C(=N)N)cc2)cc1` [Pentamidine, reference compound], for which the IC50 in data set [1] came out at 5500 ± 800 nM; in [2], 0.2 ± 0.06 nM. In the data set with human HepG2 cells, this compound came in with a CC50 of 2300 ± 500 nM.

For `CN(C)CCCNCc1ccc(-c2cc(-c3ccc(CNCCCN(C)C)cc3)c3ccccc3n2)cc1` [Compound 1b, 2,4-Bis{4-[(3-dimethylaminopropyl)aminomethyl]phenyl}quinoline], in data set [3], the “ΔTm FPf1T” value came out at 8.4 ± 1.0 °C. For the same compound, the “ΔTm FPf8T” value in data set [4] is 9.9 ± 0.1 °C. Besides, in [5], the “ΔTm FtrypBT” value turned out to be 7.8 ± 1.2 °C. The IC50 was at least 10000 nM in [1], 880 ± 140 nM in [8], 470 ± 60 nM in [9] and 820 ± 22 nM in data set [2]. Also, the “ΔTm FdxT” value in data set [6] is 0.0 ± 0.7 °C. The “ΔTm F21T” value in data set [7] worked out at 12.7 ± 0.6 °C. The same compound had a CC50 at 72 h in data set [10] of 4090 ± 200 nM.

Take `CN1CCN(CCNCc2ccc(-c3cc(-c4ccc(CNCCN5CCN(C)CC5)cc4)c4ccccc4n3)cc2)CC1` [Compound 1f, 2,4-Bis{4-[(2–(4-methylpiperazin-1-yl)ethyl)aminomethyl]phenyl}quinoline]: the “ΔTm FPf1T” value in data set [3] stood at 10.7 ± 1.0 °C. Also, the “ΔTm FPf8T” value in data set [4] worked out at 11.0 ± 0.5 °C. The “ΔTm FtrypBT” value in data set [5] worked out at 9.4 ± 0.6 °C. Besides, the IC50 in data set [1] is at least 10000 nM; in [8] it was 130 ± 24 nM; in data set [9], 2420 ± 270 nM; in data set [2] it was 990 ± 132 nM. Besides, the “ΔTm FdxT” value in [6] was −0.1 ± 0.2 °C. For the same compound, the “ΔTm F21T” value in [7] is 9.5 ± 2.9 °C. Moreover, half-maximal cytotoxicity in data set [10] (CC50 at 72 h) was put at 4090 ± 300 nM.

On to `COc1ccc2c(-c3ccc(CNCCCCN(C)C)cc3)nc(-c3ccc(CNCCCCN(C)C)cc3)cc2c1`, for which the shift in melting temperature (ΔTm) in [11] amounted to 23.2 ± 0.6 °C.

As to `COc1ccc2nc(-c3ccc(CNCCCCN(C)C)cc3)nc(-c3ccc(CNCCCCN(C)C)cc3)c2c1`, in [12], the ΔTm amounted to 19.8 ± 0.6 °C.

Consider `COc1ccc2cc(-c3ccc(CNCCCCN(C)C)cc3)nc(-c3ccc(CNCCCCN(C)C)cc3)c2c1`, for which the ΔTm in data set [11] was 22.2 ± 0.1 °C; in data set [13] it was 26.6 ± 0.2 °C; in data set [12], 27.3 ± 1.1 °C; in [14], 24.0 ± 0.3 °C; in data set [15], 4.1 ± 0.3 °C.

As to `COc1ccc2cc(-c3ccc(CNCCCN(C)C)cc3)nc(-c3ccc(CNCCCN(C)C)cc3)c2c1` [Compound 2f, 7-Methoxy-1,3-bis{4-[(3-dimethylaminopropyl)aminomethyl]phenyl}isoquinoline], the “ΔTm FPf1T” value in data set [3] worked out at 20.3 ± 1.1 °C. Further, the “ΔTm FPf8T” value in [4] was 18.5 ± 0.5 °C. Besides, in [5], the “ΔTm FtrypBT” value was 16.9 ± 1.1 °C. The IC50 in [1] is at least 10000 nM; in data set [8], 4760 ± 660 nM; in data set [9], 1470 ± 240 nM; in data set [2] it was 520 ± 72 nM. For the same compound, the “ΔTm FdxT” value in [6] turned out to be 0.8 ± 0.3 °C. Moreover, the “ΔTm F21T” value in [7] came out at 15.8 ± 0.1 °C. Also, in [10], the midpoint of cytotoxicity, the CC50 at 72 h, lay at 2120 ± 200 nM.

As to `c1cc(CNCCN2CCOCC2)cc(-c2nc(-c3cccc(CNCCN4CCOCC4)c3)c3ccccc3n2)c1`, the ΔTm in data set [11] worked out at 0.1 ± 0.1 °C; in data set [13] it was 0.5 ± 0.4 °C; in [12] it was 0.5 ± 0.3 °C; in data set [14], 0.6 ± 0.1 °C.

In general, IC50 refers to the midpoint of a concentration-inhibition curve. One may read the CC50 as the concentration giving 50% cytotoxicity. Usually ΔTm stands for the change in melting temperature against a reference sample.
